From patent publication US20190018003A1, “TUMOR DISCRIMINATION METHOD, DIAGNOSTIC AGENT FOR TUMOR, AND SENSITIZER FOR TUMOR DIAGNOSIS” (TOTO LTD., priority 2017, published 2019) come the findings set out here.

Assay [1] concerns T24 urinary bladder cancer cells. Description: Fluorescence enhancement in T24 cells by separate administration of fluorescent dye (ALA) and particles, inverted fluorescence microscope. It is filed as cell-based, human. The procedure: T24 cells (T24, JCRB0711) were prepared. This cell line was subcultured in an MEM medium (MEM, GlutaMAX™ supplement (Thermo Fisher Scientific), 10 v/v % FBS (Thermo Fischer Scientific)). The cultured cells which reached a logarithmic growth phase 3 days or 4 days later were peeled off with Trypsin/EDTA (Thermo Fisher Scientific) and, after the reaction was terminated in an MEM medium, centrifuged. The cell pellet obtained was suspended in an MEM medium. The cell suspension was subjected to measurement of cell density, inoculated onto a 6-well plate at a density of 3.6×10^4 cells/2 ml/well, and cultured for 3 days.
An aqueous ALA solution (50 mmol/l) was mixed into an MEM medium (MEM, GlutaMAX™ supplement (Thermo Fisher Scientific)) to form a 2 mmol/l ALA solution. Further, an aqueous solution of light scattering particles (2) (ii) was mixed into an MEM medium to form a 0.001 w/v % light scattering particle solution.
Evaluation was performed as follows. The medium of the T24 cells on a 6-well plate, obtained in Example 3, was removed by an aspirator, and thereto was added 2 ml of PBS (−) (Thermo Fisher Scientific). Once again, PBS (−) was removed by an aspirator, thereto was added 2 ml of an ALA solution, and the system was cultured for 2 hours. Then, the ALA solution on the 6-well plate was removed by an aspirator, thereto was added 2 ml of a light scattering particle solution, and the system was cultured for 2 hours. Further, the particle solution on the 6-well plate was removed by an aspirator, the residue was washed with HBSS (−) (Thermo Fisher Scientific), HBSS (−) was removed gain by an aspirator, to the residue was added 2 ml of HBSS (−), and the solution was used for observation and detection of fluorescence.
Observation and detection of fluorescence was performed by using an inverted fluorescence microscope (ECLIPSE Ti-E, Nikon). By using a halogen light source lamp and a 450 nm dichroic mirror, excitation light was irradiated through a 410 nm band pass filter of a 25 nm half-band width, and fluorescence was passed through a 600 nm long-pass filter. There were used an eyepiece of 10 times magnification and an objective lens of 20 times magnification and numerical aperture of 0.75. The irradiation aperture, exposure time, and gain were set to ND=8, 400 ms, and 14.0×, respectively. Fluorescent images were acquired by a cooling CCD color camera (DS-Fi3, Nikon) as digital images. By using an image analysis device IS-Elements AR ver.4.60 (Nikon), fluorescence was detected by subtracting luminance corresponding to dark noise from the image acquired, thereafter obtaining average luminance of all pixels where fluorescence is acquired, and calculating a fluorescence intensity. Also, the image acquired was observed visually.
Relative fluorescence intensity was calculated by using the fluorescence intensities acquired above according to the following formula:
[relative fluorescence intensity]=[fluorescence intensity under each condition]/[fluorescence intensity immediately after irradiation of observation light in the case of administration of fluorescent dye only]. […]
An aqueous ALA solution (50 mmol/l) was mixed into an MEM medium (MEM, GlutaMAX™ supplement (Thermo Fisher Scientific)) to form a 2 mmol/l ALA solution. An aqueous solution of silica particles having a particle size of 100 nm (sicastar, Silica Microsphere, Plain, 25 mg/ml, produced by Polyscience) was mixed into the MEM medium to form a 0.01 w/v % silica particle solution.
Evaluation was performed by removing the medium of the T24 cells on a 6-well plate, obtained in Example 3, under conditions where, in Example 4, PBS (−) and HBSS (−) were respectively changed to MEM medium and MEM medium (no glutamine, no phenol red (Thermo Fisher Scientific)), and the solution was used for detection of fluorescence. […]

Assay [2] has the same test system. Description: Fluorescence enhancement in T24 cells by simultaneous administration of fluorescent dye (ALA) and particles. Format: cell-based, human. As to conditions: Example 8, administration of fluorescent dye only, immediately after observation light irradiation. How it is done: An aqueous ALA solution (50 mmol/l) was mixed into an MEM medium (MEM, GlutaMAX™ supplement (Thermo Fisher Scientific)) to form a 4 mmol/l ALA solution. Further, an aqueous solution of light scattering particles (2) (ii) was mixed into an MEM medium to form light scattering particle solutions of 0.001, 0.002, and 0.02 w/v %.
Evaluation was performed as follows. The medium of the T24 cells on a 6-well plate, obtained in Example 3, was removed by an aspirator, and thereto was added 2 ml of PBS (−) (Thermo Fisher Scientific). Once again, PBS (−) was removed by an aspirator, thereto was added 2 ml of a mixed solution obtained by mixing 1 ml of the ALA solution and 1 ml of the light scattering particle solution, and the system was cultured under conditions of 3TC and 5 v/v % CO2 for 2 hours. Then, the mixed solution of the cells on the 6-well plate was removed by an aspirator, thereto was added 2 ml of HBSS (−) (Thermo Fisher Scientific) to wash the residue, HBSS (−) was removed again by an aspirator, to the residue was added 2 ml of HBSS (−), and the solution was used for detection.
Detection of fluorescence was performed in the same manner as in Example 4 by using an inverted fluorescence microscope and, from the images acquired, fluorescence intensities were obtained and relative fluorescence intensities were calculated.

For the compound `NCC(=O)CCC(=O)O` [fluorescent dye, 5-aminolevulinic acid], the Relative fluorescence intensity is 0.4 in assay [1] (Example 4, T24, ALA 2 mmol/l 2 h, then particles 0.001 w/v % 2 h, 50 seconds after observation light irradiation); 0.1 in assay [1] (Example 4, T24, ALA 2 mmol/l 2 h, then particles 0.001 w/v % 2 h, 150 seconds after observation light irradiation); 1.0 in assay [1] (Example 4, T24, ALA 2 mmol/l 2 h, then particles 0.001 w/v % 2 h, immediately after observation light irradiation, relative to dye only immediately after irradiation); 1.0 in assay [1] (Example 7, T24, ALA 2 mmol/l, administration of fluorescent dye only); 1.0 in assay [1] (Example 10, T24 cell line, ALA 2 mmol/l, particles 0.001 w/v %); 1.0 in assay [1] (Example 12, T24, ALA 2 mmol/l, silica particles 0.01 w/v %, immediately after observation light irradiation). The Relative fluorescence intensity stood at 1.0 in assay [1] (Example 13, T24, ALA 2 mmol/l, polystyrene particles 0.01 w/v %, immediately after observation light irradiation); 1.0 in assay [1] (Example 14, T24, ALA 2 mmol/l, particles 0.001 w/v %, immediately after observation light irradiation); 1.0 in assay [1] (Example 15, T24, ALA 2 mmol/l, particles 0.001 w/v %, immediately after observation light irradiation); 1.0 in assay [2].
